Consider 23 compounds from patent publication US8853203B2, “Diazepinone derivatives” (Novartis AG, priority 2012, dated 2014).

For one assay, the target named is human mGluR5a receptors (Homo sapiens (Human), UniProt P41594). Briefly: inhibition of glutamate-induced elevation of intracellular calcium in L(tk-) cells expressing human mGluR5a. It is filed as cell-based. As to conditions: for IC50: glutamate-induced intracellular calcium elevation, L(tk-) cells expressing human mGluR5a, read-out: mGluR5 IC50. In a few lines:
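Compounds tested for inhibition of the glutamate-induced rise in intracellular calcium concentration in L(tk-) cells stably expressing human mGluR5a.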

For the next assay, the target named is human mGluR1 (Homo sapiens (Human), UniProt Q13255). Briefly: mGluR1 antagonism, L-glutamate induced intracellular calcium increase (FLIPR) in CHO cells stably expressing human mGluR1. In kind it is cell-based. As to conditions: L-glutamate induced intracellular calcium, CHO cells expressing human mGluR1, FLIPR.
human mGluR1, sequence (Q13255 19-1194): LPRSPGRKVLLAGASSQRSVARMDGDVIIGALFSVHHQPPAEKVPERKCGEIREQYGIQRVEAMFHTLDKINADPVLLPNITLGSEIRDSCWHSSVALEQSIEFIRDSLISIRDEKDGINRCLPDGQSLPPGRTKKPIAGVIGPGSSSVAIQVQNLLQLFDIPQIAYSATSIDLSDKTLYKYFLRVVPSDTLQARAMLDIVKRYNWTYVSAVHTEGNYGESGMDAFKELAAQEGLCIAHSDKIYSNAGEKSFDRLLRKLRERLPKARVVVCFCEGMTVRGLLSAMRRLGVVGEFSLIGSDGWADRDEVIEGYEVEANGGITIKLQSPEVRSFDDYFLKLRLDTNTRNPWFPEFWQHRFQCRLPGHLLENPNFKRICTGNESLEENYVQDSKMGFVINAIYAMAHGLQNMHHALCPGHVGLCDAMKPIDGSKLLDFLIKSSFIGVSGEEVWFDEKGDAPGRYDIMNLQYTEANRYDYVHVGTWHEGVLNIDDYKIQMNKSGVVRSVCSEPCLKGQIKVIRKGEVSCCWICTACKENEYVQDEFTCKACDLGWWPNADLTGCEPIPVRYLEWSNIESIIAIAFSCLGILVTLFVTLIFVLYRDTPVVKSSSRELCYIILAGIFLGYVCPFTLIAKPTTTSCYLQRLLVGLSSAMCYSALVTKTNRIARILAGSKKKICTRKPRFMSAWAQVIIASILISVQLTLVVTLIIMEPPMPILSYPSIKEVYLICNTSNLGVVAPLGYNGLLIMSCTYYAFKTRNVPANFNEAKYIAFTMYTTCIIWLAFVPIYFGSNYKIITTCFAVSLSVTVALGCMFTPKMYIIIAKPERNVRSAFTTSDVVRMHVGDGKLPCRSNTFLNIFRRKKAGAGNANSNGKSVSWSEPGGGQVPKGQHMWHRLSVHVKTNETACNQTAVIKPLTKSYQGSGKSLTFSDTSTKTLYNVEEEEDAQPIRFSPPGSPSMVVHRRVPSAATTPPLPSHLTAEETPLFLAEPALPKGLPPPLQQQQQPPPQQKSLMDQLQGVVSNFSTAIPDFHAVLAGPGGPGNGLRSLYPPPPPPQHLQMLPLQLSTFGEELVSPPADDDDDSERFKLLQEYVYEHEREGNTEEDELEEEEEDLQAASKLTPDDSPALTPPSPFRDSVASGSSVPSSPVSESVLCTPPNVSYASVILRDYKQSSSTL

human mGluR5a receptors, sequence (P41594 other isoform, or with tags, fused parts or gaps): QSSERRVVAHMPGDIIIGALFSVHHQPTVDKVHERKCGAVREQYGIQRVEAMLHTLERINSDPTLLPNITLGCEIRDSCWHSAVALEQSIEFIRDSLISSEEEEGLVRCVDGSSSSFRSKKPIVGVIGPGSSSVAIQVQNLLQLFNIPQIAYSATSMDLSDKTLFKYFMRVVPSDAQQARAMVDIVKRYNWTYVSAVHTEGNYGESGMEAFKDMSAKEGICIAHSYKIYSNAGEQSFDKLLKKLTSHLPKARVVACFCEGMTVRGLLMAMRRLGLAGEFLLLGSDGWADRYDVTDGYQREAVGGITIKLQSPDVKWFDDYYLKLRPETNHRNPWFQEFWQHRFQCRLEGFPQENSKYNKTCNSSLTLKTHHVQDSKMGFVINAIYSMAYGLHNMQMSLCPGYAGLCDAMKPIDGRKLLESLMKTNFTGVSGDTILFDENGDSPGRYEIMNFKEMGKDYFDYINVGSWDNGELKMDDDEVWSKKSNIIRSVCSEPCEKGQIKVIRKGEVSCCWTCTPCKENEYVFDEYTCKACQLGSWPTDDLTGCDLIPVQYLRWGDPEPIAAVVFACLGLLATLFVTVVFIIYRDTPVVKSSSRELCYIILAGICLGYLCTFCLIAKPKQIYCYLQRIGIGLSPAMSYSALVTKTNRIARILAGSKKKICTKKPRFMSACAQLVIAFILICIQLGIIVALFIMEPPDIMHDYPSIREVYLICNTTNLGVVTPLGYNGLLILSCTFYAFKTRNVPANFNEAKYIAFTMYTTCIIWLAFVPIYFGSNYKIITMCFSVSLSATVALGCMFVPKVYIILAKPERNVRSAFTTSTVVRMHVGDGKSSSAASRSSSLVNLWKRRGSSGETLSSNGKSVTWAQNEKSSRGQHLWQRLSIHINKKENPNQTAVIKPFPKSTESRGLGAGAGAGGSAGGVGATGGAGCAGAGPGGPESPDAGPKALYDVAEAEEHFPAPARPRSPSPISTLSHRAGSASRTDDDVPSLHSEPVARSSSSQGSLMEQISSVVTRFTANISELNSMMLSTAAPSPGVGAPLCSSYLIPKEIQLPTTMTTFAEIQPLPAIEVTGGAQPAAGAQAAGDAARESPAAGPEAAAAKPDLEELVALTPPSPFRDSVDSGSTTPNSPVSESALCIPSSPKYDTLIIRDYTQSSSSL

In the case of `O=C1CN=C(n2cnc(C3CC3)c2)C=C2c3cccc(-c4cnc(F)cn4)c3CCN12` [Example 139, 2-(4-cyclopropyl-1H-imidazol-1-yl)-9-(5-fluoropyrazin-2-yl)-7,8-dihydro-[1,4]diazepino[7,1-a]isoquinolin-5(4H)-one], the IC50 on human mGluR5a receptors was 17 nM; on human mGluR1 it was 1100 nM.

As for `O=C1CN=C(c2ccco2)C=C2c3cccc(-c4ccncc4)c3CCN12` [Example 28, 2-(furan-2-yl)-9-(pyridin-4-yl)-7,8-dihydro-[1,4]diazepino[7,1-a]isoquinolin-5(4H)-one], the IC50 on human mGluR5a receptors came to 80 nM; at human mGluR1, 4800 nM.

As for `COc1cccc2c1CCN1C(=O)CN=C(c3ccn(C)n3)C=C21` [Example 11, 9-methoxy-2-(1-methyl-1H-pyrazol-3-yl)-7,8-dihydro-[1,4]diazepino[7,1-a]isoquinolin-5(4H)-one], the figures for the half-maximal inhibitory concentration (IC50) on human mGluR5a receptors and at human mGluR1 were 170 nM and 690 nM, respectively.

In the case of `Cc1ccc(C2=NCC(=O)N3CCc4c(cccc4N4CCOCC4)C3=C2)o1` [Example 23, 2-(5-methylfuran-2-yl)-9-morpholino-7,8-dihydro-[1,4]diazepino[7,1-a]isoquinolin-5(4H)-one], the IC50 was 22 nM at human mGluR5a receptors and above 10000 nM on human mGluR1.

`COCc1cn(C2=NCC(=O)N3CCc4c(C5=CCCC5)cccc4C3=C2)cn1` [Example 120, 9-(cyclopent-1-en-1-yl)-2-(4-(methoxymethyl)-1H-imidazol-1-yl)-7,8-dihydro-[1,4]diazepino[7,1-a]isoquinolin-5(4H)-one]: the IC50 was determined as 7 nM at human mGluR5a receptors and 890 nM on human mGluR1.

With `CCc1cn(C2=NCC(=O)N3CCc4c(cccc4-c4ncco4)C3=C2)cn1` [Example 74, 2-(4-ethyl-1H-imidazol-1-yl)-9-(oxazol-2-yl)-7,8-dihydro-[1,4]diazepino[7,1-a]isoquinolin-5(4H)-one], the IC50 was 22 nM on human mGluR5a receptors and 1200 nM on human mGluR1.

For `COc1cccc(C2=NCC(=O)N3CCc4c(cccc4-c4ccccc4)C3=C2)c1` [Example 49, 2-(3-methoxyphenyl)-9-phenyl-7,8-dihydro-[1,4]diazepino[7,1-a]isoquinolin-5(4H)-one], the IC50 is 1300 nM at human mGluR5a receptors and above 10000 nM on human mGluR1.

Take `COc1cccc(C2=NCC(=O)N3CCc4c(OC)cccc4C3=C2)n1` [Example 9, 9-methoxy-2-(6-methoxypyridin-2-yl)-7,8-dihydro-[1,4]diazepino[7,1-a]isoquinolin-5(4H)-one]: the 50% inhibitory concentration (IC50) is 600 nM on human mGluR5a receptors and above 10000 nM on human mGluR1.

For `Cc1nc(-c2cccc3c2CCN2C(=O)CN=C(n4cnc(C5CC5)c4)C=C32)co1` [Example 108, 2-(4-cyclopropyl-1H-imidazol-1-yl)-9-(2-methyloxazol-4-yl)-7,8-dihydro-[1,4]diazepino[7,1-a]isoquinolin-5(4H)-one], the IC50 on human mGluR5a receptors is 18 nM; on human mGluR1 it was 3300 nM.

`Cc1ncn(C2=NCC(=O)N3CCc4c(ccc(F)c4-c4cccnc4F)C3=C2)n1` [Example 99r, 10-fluoro-9-(2-fluoropyridin-3-yl)-2-(3-methyl-1H-1,2,4-triazol-1-yl)-7,8-dihydro-[1,4]diazepino[7,1-a]isoquinolin-5(4H)-one]: the results for the half-inhibitory concentration (IC50) at human mGluR5a receptors and on human mGluR1 were 136 nM and above 10000 nM, respectively.

`N#Cc1cccc2c1CCN1C(=O)CN=C(c3cccs3)C=C21` [Example 39, 5-oxo-2-(thiophen-2-yl)-4,5,7,8-tetrahydro-[1,4]diazepino[7,1-a]isoquinoline-9-carbonitrile]: the IC50 is 610 nM at human mGluR5a receptors and 1600 nM at human mGluR1.

In the case of `COCCOCc1cccc2c1CCN1C(=O)CN=C(c3cccc(OC)c3)C=C21` [Example 44, 9-((2-methoxyethoxy)methyl)-2-(3-methoxyphenyl)-7,8-dihydro-[1,4]diazepino[7,1-a]isoquinolin-5(4H)-one], the IC50 was 1600 nM at human mGluR5a receptors and above 10000 nM at human mGluR1.

As for `COC(=O)c1cccc2c1CCN1C(=O)CN=C(n3cnc(C4CC4)c3)C=C21` [Example 132, methyl 2-(4-cyclopropyl-1H-imidazol-1-yl)-5-oxo-4,5,7,8-tetrahydro-[1,4]diazepino[7,1-a]isoquinoline-9-carboxylate], the results for the IC50 at human mGluR5a receptors and at human mGluR1 were 61 nM and 2070 nM, respectively.

For the compound `CCOC(=O)c1cn(C2=NCC(=O)N3CCc4c(I)cccc4C3=C2)cn1` [Example 68, ethyl 1-(9-iodo-5-oxo-4,5,7,8-tetrahydro-[1,4]diazepino[7,1-a]isoquinolin-2-yl)-1H-imidazole-4-carboxylate], the IC50 on human mGluR5a receptors is 1700 nM; at human mGluR1, above 10000 nM.

As for `O=C1CN=C(n2cnc(C(F)F)c2)C=C2c3ccnc(C4CC4)c3CCN12` [Example 110d, 9-cyclopropyl-2-(4-(difluoromethyl)-1H-imidazol-1-yl)-7,8-dihydro-[1,4]diazepino[7,1-a][2,6]naphthyridin-5(4H)-one], the inhibition at 2 µM at human mGluR5a receptors (LTK, read-out: mGluR5 % inhibition at 2 μM) was 57%. Moreover, the IC50 at human mGluR1 is above 10000 nM.

`O=C1CN=C(n2cnc(-c3cnco3)c2)C=C2c3cccc(C4CC4)c3CCN12` [Example 123a, 9-cyclopropyl-2-(4-(oxazol-5-yl)-1H-imidazol-1-yl)-7,8-dihydro-[1,4]diazepino[7,1-a]isoquinolin-5(4H)-one]: the 50% inhibitory concentration (IC50) on human mGluR5a receptors was 12 nM; at human mGluR1, above 2000 nM.

Take `Cn1ccc(C2=NCC(=O)N3CCc4c(I)cccc4C3=C2)n1` [Example 31, 9-iodo-2-(1-methyl-1H-pyrazol-3-yl)-7,8-dihydro-[1,4]diazepino[7,1-a]isoquinolin-5(4H)-one]: the IC50 is 167 nM on human mGluR5a receptors and 1300 nM on human mGluR1.

On to `COc1cc(C2=NCC(=O)N3CCc4c(cccc4-c4cnccn4)C3=C2)ccn1` [Example 52, 2-(2-methoxypyridin-4-yl)-9-(pyrazin-2-yl)-7,8-dihydro-[1,4]diazepino[7,1-a]isoquinolin-5(4H)-one], for which the values for the 50% inhibitory concentration (IC50) at human mGluR5a receptors and at human mGluR1 were 66 nM and above 10000 nM, respectively.

On to `Cc1cn(C2=NCC(=O)N3CCc4c(cccc4-c4ccncc4)C3=C2)cn1` [Example 80, 2-(4-methyl-1H-imidazol-1-yl)-9-(pyridin-4-yl)-7,8-dihydro-[1,4]diazepino[7,1-a]isoquinolin-5(4H)-one], for which the IC50 is 145 nM at human mGluR5a receptors and above 10000 nM at human mGluR1.

With `COc1cc(C2=NCC(=O)N3CCc4c(Cl)cccc4C3=C2)ccn1` [Example 6, 9-chloro-2-(2-methoxypyridin-4-yl)-7,8-dihydro-[1,4]diazepino[7,1-a]isoquinolin-5(4H)-one], the concentration for half-maximal inhibition (IC50) was 75 nM at human mGluR5a receptors and 3050 nM on human mGluR1.

For the compound `CC(C)n1cc(C2=NCC(=O)N3CCc4c(cccc4-n4cccn4)C3=C2)cn1` [Example 42, 2-(1-isopropyl-1H-pyrazol-4-yl)-9-(1H-pyrazol-1-yl)-7,8-dihydro-[1,4]diazepino[7,1-a]isoquinolin-5(4H)-one], the values for the IC50 at human mGluR5a receptors and on human mGluR1 were 32 nM and 3400 nM, respectively.

Consider `COc1cc(C2=NCC(=O)N3CCc4c(cccc4N4CCOCC4)C3=C2)ccn1` [Example 22, 2-(2-methoxypyridin-4-yl)-9-morpholino-7,8-dihydro-[1,4]diazepino[7,1-a]isoquinolin-5(4H)-one], for which the IC50 on human mGluR5a receptors is 71 nM; at human mGluR1, above 10000 nM.

In the case of `COCc1cn(C2=NCC(=O)N3CCc4c(cccc4C4CCC4)C3=C2)cn1` [Example 91, 9-cyclobutyl-2-(4-(methoxymethyl)-1H-imidazol-1-yl)-7,8-dihydro-[1,4]diazepino[7,1-a]isoquinolin-5(4H)-one], the IC50 stood at 9 nM at human mGluR5a receptors and 220 nM on human mGluR1.
